Residue numbers refer to the chain shown, from its start.
Legend:
[1] = target: T1, ferrochelatase variant P255R (Mus musculus, UniProt P22315, P308R); assay: Transient kinetic analysis of NMPP inhibition (stopped-flow, zinc-protoporphyrin formation); assay type: biochemical, murine
T1 construct: In wild-type, murine, mature ferrochelatase, five tryptophan residues; penta-histidine tag (N); made in house; host or cells: E. coli BL21(DE3)
T1 sequence (P22315 54-422 P308R): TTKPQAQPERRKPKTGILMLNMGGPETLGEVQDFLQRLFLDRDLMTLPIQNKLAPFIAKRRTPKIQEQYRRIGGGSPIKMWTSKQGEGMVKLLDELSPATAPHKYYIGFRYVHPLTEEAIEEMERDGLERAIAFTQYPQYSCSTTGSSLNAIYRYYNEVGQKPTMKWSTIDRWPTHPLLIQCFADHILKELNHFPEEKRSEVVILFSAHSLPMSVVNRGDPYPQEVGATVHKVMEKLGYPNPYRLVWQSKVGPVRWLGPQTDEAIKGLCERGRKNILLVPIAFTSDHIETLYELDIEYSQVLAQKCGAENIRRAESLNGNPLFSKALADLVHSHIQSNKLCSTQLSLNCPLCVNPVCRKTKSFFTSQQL
Method: (§1) Enzyme (0.5 μM) was reacted with protoporphyrin (5 μM) and zinc-acetate (15 μM) in the presence of various concentrations of NMPP. The pseudo first-order rate constant k was obtained from analysis of the time course (see Materials and Methods and FIG. 4) and plotted against NMPP concentration. The enzymes used in each set were: A. wild-type ferrochelatase; B. variant P255R; C. variant P255G.
(§2) In order to obtain the pseudo first-order rate constants for NMPP binding, the kinetic traces for zinc-protoporphyrin formation in the presence of various concentrations of inhibitor were fitted to equation 3. […] The data were fit to equation 1 for a two step process:
(§3) [formula] where k is the pseudo first-order rate constant for the approach to the steady-state phase, I0 is the inhibitor concentration, S0 is the initial substrate concentration,
(§4) [formula] is the apparent inhibition constant, Ki^app, and k2 and k−2 are the second step forward and reverse rate constants, respectively. […] A two kinetic step process for binding of NMPP to either wild-type ferrochelatase or P255R (i.e., a fast, initial step for NMPP binding to the enzyme, followed by a slow step, possibly related to a conformational rearrangement of the protein-inhibitor complex) is consistent with the porphyrin-triggered conformational change of the active-site pocket deduced from the analysis of the crystal structure of B. subtilis ferrochelatase with bound N-methyl mesoporphyrin in comparison with that of the unliganded protein. […] Therefore the diminished inhibition of variant P255R by NMPP (Ki^app=1 μM vs. Ki^app=3 nM for wild-type ferrochelatase) cannot be accounted for by differences in these rates.
(§5) Transient Kinetic Analysis. The kinetic steps involved in NMPP binding to ferrochelatase were assessed using stopped-flow absorption spectroscopic analysis by monitoring the enzymatic reaction in the presence of various concentrations of the inhibitor NMPP. The reactions were performed using a rapid scanning stopped-flow spectrophotometer (model RSM-1000; OLIS Inc.), equipped with a stopped-flow mixer and an observation chamber with an optical path-length of 4 mm. The dead time of the instrument is ˜2 ms. Scan spectra spanning the wavelength range of 347 to 574 nm were collected at a rate of 1000 scan/sec. The syringes containing the reaction components and the stopped-flow cell were maintained at 30° C. using an external water-bath. The concentrations of reagents loaded into each syringe were two-fold greater than the final concentrations in the observation chamber. Enzymatic activity was monitored by following the increase in absorbance at 420 nm for zinc-protoporphyrin production using Zn^2+ and protoporphyrin as substrates.
(§6) The enzyme and substrate stock solutions were diluted in 100 mM Tris-acetate, pH 8.0, containing 0.5% Tween-80. The stock solutions for substrates and inhibitor were prepared as follows: A 3 mM zinc-acetate solution was made by dissolving zinc-acetate in distilled and deionized H2O. A 200 μM protoporphyrin solution was prepared by dissolving protoporphyrin 1× in 50 mM NH4OH containing 0.5% Tween-80. A 2 mM NMPP solution was prepared by dissolving NMPP in 100 mM NH4OH containing 0.5% Tween-80. Typically, a 2 mL solution that was 1 μM in ferrochelatase and 10 μM in protoporphyrin was pre-incubated on ice for 30 min. The porphyrin-enzyme solution was titrated with NMPP. The mixture was subsequently transferred to one of the stopped-flow syringes. The other stopped-flow syringe was loaded with a reaction buffer solution of ˜2 mL that was 30 μM in zinc-acetate. The enzymatic reaction was initiated by mixing the contents from both syringes and reaction progression was monitored by following the increase in absorbance at 420 nm. The data were analyzed by fitting the observed absorbance values to equation 4: […]

[2] = target: T2, wild-type ferrochelatase (Mus musculus, UniProt P22315); assay: as above; assay type: biochemical, murine
T2 construct: In wild-type, murine, mature ferrochelatase, five tryptophan residues; penta-histidine tag (N); made in house; host or cells: E. coli BL21(DE3)
T2 sequence (P22315 54-422): T1 sequence (P22315 54-422 P308R) with R255P
Method: as §1, §2, §3, §4, §5, §6

[3] = two-step fit (equation 1), read-out: apparent inhibition constant Ki^app

N-methyl protoporphyrin [NMPP]
second step forward rate constant k2 [1]: 8.3 s⁻¹ | second step reverse rate constant k−2 [1]: 19.3 s⁻¹ | Ki [1, 3]: 1000 nM | second step forward rate constant k2 [2]: 6.4 s⁻¹ | second step reverse rate constant k−2 [2]: 24.5 s⁻¹ | Ki [2, 3]: 3 nM

— patent US8586530B2, “Modulation of inhibition of ferrochelatase by N-methyl protoporphyrin” (University of South Florida, priority 2006, dated 2013)
